Reference: patent publication US20220088016A1, “CANCER TREATMENT USING MULTI-TARGETED KINASE INHIBITOR IN COMBINATION OF PROTEIN KINASE BIOMARKERS” (ZHEJIANG CROWNMAB BIOTECH CO. LTD., priority 2019, published 2022)

How the values were obtained:
Experiment in all cases: Kinase IC50 (Eurofins KinaseProfiler)
Type in all cases: biochemical
CDK2/cyclinE (h) = target: T1, CDK2/cyclinE (h) (Homo sapiens, UniProt P24941)
T1 construct: purchased Eurofins (KinaseProfiler service)
Protocol: (§1) CBT-102 were tested against each of the selected kinases using the Eurofins standard KinaseProfder assays and following the relevant standard operating procedures. The required volume of the 50× stock of test compound (CBT-102) was added to the assay well, before a reaction mix containing the enzyme and substrate was added. The reaction was initiated by the addition of ATP at the selected concentration. There was no pre-incubation of the compound with the enzyme/substrate mix prior to ATP addition.
(§2) Data are handled using a custom-built in-house analysis software. Results are expressed as kinase activity remaining, as a percentage of the DMSO control. This is calculated using the following formula: […]
(§3) For IC50 determinations, data are analyzed using XLFit version 5.3 (ID Business Solutions).

SAPK2b (h) = target: T2, SAPK2b (h) (Homo sapiens, UniProt Q15759)
T2 construct: purchased Eurofins
Protocol: as §1, §2, §3

SAPK4 (h) = target: T3, SAPK4 (h) (Homo sapiens, UniProt O15264)
T3 construct: purchased Eurofins
Protocol: as §1, §2, §3

Pim-1 (h) = target: T4, Pim-1 (h) (Homo sapiens, UniProt P11309)
T4 construct: purchased Eurofins
Protocol: as §1, §2, §3

cKit (D816V) (h) = target: T5, cKit (D816V) (h) (Homo sapiens, UniProt P10721, D816V)
T5 construct: purchased Eurofins (KinaseProfiler service)
Protocol: as §1, §2, §3

NEK2 (h) = target: T6, NEK2 (h) (Homo sapiens, UniProt P51955)
T6 construct: purchased Eurofins (KinaseProfiler service)
Protocol: as §1, §2, §3

FGFR1 (h) = target: T7, FGFR1 (h) (Homo sapiens, UniProt P11362)
T7 construct: purchased Eurofins (KinaseProfiler service)
Protocol: as §1, §2, §3

cKit (V560G) (h) = target: T8, cKit (V560G) (h) (Homo sapiens, UniProt P10721, V560G)
T8 construct: purchased Eurofins (KinaseProfiler service)
Protocol: as §1, §2, §3

DDR2 (h) = target: T9, DDR2 (h) (Homo sapiens, UniProt Q16832)
T9 construct: purchased Eurofins (KinaseProfiler service)
Protocol: as §1, §2, §3

MuSK (h) = target: T10, MuSK (h) (Homo sapiens, UniProt O15146)
T10 construct: purchased Eurofins (KinaseProfiler service)
Protocol: as §1, §2, §3

PKA (h) = target: T11, PKA (h) (Homo sapiens, UniProt P17612)
T11 construct: purchased Eurofins
Protocol: as §1, §2, §3

TNIK (h) = target: T12, TNIK (h) (Homo sapiens, UniProt Q9UKE5)
T12 construct: purchased Eurofins
Protocol: as §1, §2, §3

ErbB2 (h) = target: T13, ErbB2 (h) (Homo sapiens, UniProt P04626)
T13 construct: purchased Eurofins (KinaseProfiler service)
Protocol: as §1, §2, §3

B-Raf (h) = target: T14, B-Raf (h) (Homo sapiens, UniProt P15056)
T14 construct: purchased Eurofins
Protocol: as §1, §2, §3

MAP4K5 (h) = target: T15, MAP4K5 (h) (Homo sapiens, UniProt Q9Y4K4)
T15 construct: purchased Eurofins (KinaseProfiler service)
Protocol: as §1, §2, §3

SLK (h) = target: T16, SLK (h) (Homo sapiens, UniProt Q9H2G2)
T16 construct: purchased Eurofins
Protocol: as §1, §2, §3

EphB3 (h) = target: T17, EphB3 (h) (Homo sapiens, UniProt P54753)
T17 construct: purchased Eurofins (KinaseProfiler service)
Protocol: as §1, §2, §3

Met (h) = target: T18, Met (h) (Homo sapiens, UniProt P08581)
T18 construct: purchased Eurofins (KinaseProfiler service)
Protocol: as §1, §2, §3

cSRC (h) = target: T19, cSRC (h) (Homo sapiens, UniProt P12931)
T19 construct: purchased Eurofins (KinaseProfiler service)
Protocol: as §1, §2, §3

Aurora-C (h) = target: T20, Aurora-C (h) (Homo sapiens, UniProt Q9UQB9)
T20 construct: purchased Eurofins
Protocol: as §1, §2, §3

FGFR3 (h) = target: T21, FGFR3 (h) (Homo sapiens, UniProt P22607)
T21 construct: purchased Eurofins (KinaseProfiler service)
Protocol: as §1, §2, §3

Aurora-A (h) = target: T22, Aurora-A (h) (Homo sapiens, UniProt O14965)
T22 construct: purchased Eurofins
Protocol: as §1, §2, §3

IR (h) = target: T23, IR (h) (Homo sapiens, UniProt P06213)
T23 construct: purchased Eurofins (KinaseProfiler service)
Protocol: as §1, §2, §3

IRAK4 (h) = target: T24, IRAK4 (h) (Homo sapiens, UniProt Q9NWZ3)
T24 construct: purchased Eurofins (KinaseProfiler service)
Protocol: as §1, §2, §3

Abl (h) = target: T25, Abl (h) (Homo sapiens, UniProt P00519)
T25 construct: purchased Eurofins
Protocol: as §1, §2, §3

CDK6/cyclinD3 (h) = target: T26, CDK6/cyclinD3 (h) (Homo sapiens, UniProt Q00534)
T26 construct: purchased Eurofins (KinaseProfiler service)
Protocol: as §1, §2, §3

MLK1 (h) = target: T27, MLK1 (h) (Homo sapiens, UniProt P80192)
T27 construct: purchased Eurofins (KinaseProfiler service)
Protocol: as §1, §2, §3

ZAK (h) = target: T28, ZAK (h) (Homo sapiens, UniProt Q9NYL2)
T28 construct: purchased Eurofins
Protocol: as §1, §2, §3

IGF-1R (h) = target: T29, IGF-1R (h) (Homo sapiens, UniProt P08069)
T29 construct: purchased Eurofins (KinaseProfiler service)
Protocol: as §1, §2, §3

CDK4/cyclinD3 (h) = target: T30, CDK4/cyclinD3 (h) (Homo sapiens, UniProt P11802)
T30 construct: purchased Eurofins (KinaseProfiler service)
Protocol: as §1, §2, §3

JAK2 (h) = target: T31, JAK2 (h) (Homo sapiens, UniProt O60674)
T31 construct: purchased Eurofins (KinaseProfiler service)
Protocol: as §1, §2, §3

Syk (h) = target: T32, Syk (h) (Homo sapiens, UniProt P43405)
T32 construct: purchased Eurofins
Protocol: as §1, §2, §3

EphB4 (h) = target: T33, EphB4 (h) (Homo sapiens, UniProt P54760)
T33 construct: purchased Eurofins (KinaseProfiler service)
Protocol: as §1, §2, §3

EphA1 (h) = target: T34, EphA1 (h) (Homo sapiens, UniProt P21709)
T34 construct: purchased Eurofins (KinaseProfiler service)
Protocol: as §1, §2, §3

p70S6K (h) = target: T35, p70S6K (h) (Homo sapiens, UniProt P23443)
T35 construct: purchased Eurofins (KinaseProfiler service)
Protocol: as §1, §2, §3

T24 sequence (Q9NWZ3 whole entry): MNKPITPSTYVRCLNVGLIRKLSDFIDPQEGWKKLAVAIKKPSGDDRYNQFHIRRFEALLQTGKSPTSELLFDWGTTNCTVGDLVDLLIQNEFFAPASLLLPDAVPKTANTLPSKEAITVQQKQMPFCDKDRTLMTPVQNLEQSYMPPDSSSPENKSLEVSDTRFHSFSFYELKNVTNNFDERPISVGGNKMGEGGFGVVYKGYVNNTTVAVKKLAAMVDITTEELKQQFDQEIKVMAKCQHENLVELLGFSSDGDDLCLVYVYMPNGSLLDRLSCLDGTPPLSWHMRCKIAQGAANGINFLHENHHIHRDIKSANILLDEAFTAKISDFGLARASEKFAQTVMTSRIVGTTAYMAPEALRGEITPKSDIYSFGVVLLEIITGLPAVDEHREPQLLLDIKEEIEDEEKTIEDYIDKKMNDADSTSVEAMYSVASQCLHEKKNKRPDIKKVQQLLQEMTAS
T21 sequence (P22607 23-806): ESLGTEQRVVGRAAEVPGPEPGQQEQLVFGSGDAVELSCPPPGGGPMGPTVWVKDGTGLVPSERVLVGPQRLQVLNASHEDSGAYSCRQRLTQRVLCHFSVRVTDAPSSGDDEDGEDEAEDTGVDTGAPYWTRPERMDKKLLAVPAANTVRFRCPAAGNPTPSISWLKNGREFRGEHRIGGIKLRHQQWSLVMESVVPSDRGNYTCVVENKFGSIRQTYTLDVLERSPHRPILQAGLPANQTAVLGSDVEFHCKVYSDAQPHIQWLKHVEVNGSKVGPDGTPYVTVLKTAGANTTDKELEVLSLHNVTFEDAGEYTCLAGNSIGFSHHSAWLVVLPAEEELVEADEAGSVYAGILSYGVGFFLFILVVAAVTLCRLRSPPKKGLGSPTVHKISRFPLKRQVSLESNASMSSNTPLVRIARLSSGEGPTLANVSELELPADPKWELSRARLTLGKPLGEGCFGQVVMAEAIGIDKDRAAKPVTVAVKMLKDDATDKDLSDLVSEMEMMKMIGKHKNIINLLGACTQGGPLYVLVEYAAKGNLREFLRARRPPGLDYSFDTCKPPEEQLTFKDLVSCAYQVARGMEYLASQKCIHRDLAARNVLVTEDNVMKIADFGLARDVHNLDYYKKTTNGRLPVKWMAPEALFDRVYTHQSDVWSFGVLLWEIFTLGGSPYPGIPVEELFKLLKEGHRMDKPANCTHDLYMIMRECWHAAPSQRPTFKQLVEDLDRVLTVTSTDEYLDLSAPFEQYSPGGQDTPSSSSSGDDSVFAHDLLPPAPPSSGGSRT
T16 sequence (Q9H2G2 whole entry): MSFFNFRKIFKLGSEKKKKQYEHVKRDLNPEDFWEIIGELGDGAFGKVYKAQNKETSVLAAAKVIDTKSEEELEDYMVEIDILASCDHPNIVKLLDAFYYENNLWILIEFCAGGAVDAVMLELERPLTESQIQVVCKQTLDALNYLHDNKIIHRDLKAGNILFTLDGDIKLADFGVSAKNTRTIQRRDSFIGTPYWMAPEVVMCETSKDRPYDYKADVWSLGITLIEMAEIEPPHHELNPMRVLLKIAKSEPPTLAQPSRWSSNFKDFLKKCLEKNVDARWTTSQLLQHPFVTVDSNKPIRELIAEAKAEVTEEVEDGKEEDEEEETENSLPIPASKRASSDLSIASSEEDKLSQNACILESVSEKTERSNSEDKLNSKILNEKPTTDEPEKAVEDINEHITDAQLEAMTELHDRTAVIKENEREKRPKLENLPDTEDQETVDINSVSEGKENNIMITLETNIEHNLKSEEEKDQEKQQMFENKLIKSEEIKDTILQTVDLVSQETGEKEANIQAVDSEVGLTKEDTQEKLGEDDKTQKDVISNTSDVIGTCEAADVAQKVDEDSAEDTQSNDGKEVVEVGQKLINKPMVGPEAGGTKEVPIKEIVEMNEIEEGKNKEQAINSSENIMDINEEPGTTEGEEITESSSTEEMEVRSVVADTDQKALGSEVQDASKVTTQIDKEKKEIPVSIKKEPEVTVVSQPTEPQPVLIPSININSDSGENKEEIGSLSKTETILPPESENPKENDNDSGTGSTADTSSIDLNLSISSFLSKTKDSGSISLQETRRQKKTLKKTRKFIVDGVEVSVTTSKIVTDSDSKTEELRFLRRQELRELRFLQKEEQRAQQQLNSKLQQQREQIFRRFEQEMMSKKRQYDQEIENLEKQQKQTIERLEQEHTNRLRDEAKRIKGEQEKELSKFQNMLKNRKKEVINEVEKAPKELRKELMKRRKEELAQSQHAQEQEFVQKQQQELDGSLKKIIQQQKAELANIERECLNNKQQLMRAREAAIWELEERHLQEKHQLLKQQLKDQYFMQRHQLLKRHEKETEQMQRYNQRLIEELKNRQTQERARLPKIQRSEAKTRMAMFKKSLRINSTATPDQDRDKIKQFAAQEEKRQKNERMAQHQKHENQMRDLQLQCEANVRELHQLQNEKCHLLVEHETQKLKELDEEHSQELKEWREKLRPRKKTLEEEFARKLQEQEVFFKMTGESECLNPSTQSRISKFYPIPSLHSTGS
T8 sequence (P10721 26-976 V560G): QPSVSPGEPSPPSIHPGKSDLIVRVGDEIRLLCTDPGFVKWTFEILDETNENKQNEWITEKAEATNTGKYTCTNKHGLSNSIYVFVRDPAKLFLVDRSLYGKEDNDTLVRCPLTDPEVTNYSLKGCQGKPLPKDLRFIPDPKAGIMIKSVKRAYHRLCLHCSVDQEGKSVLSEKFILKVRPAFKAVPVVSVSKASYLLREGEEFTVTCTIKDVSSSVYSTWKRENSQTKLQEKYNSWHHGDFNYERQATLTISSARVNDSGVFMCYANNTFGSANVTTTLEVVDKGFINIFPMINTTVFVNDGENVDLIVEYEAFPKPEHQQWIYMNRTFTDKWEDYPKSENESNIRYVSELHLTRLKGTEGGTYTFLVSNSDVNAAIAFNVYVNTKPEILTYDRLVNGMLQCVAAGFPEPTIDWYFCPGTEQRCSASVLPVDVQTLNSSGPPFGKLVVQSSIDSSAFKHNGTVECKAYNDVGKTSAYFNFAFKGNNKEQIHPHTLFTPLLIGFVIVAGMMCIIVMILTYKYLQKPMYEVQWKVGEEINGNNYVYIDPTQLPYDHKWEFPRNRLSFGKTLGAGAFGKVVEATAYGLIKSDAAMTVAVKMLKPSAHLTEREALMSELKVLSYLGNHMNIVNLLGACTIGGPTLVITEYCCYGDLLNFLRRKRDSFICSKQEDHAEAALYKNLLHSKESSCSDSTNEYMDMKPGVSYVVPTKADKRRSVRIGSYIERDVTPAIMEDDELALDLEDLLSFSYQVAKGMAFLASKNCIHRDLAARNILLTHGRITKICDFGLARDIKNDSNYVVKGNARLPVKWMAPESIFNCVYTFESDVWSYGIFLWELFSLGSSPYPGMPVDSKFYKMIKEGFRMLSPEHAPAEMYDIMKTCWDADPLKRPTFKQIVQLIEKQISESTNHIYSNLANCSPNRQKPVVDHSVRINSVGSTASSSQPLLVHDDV
T31 sequence (O60674 whole entry): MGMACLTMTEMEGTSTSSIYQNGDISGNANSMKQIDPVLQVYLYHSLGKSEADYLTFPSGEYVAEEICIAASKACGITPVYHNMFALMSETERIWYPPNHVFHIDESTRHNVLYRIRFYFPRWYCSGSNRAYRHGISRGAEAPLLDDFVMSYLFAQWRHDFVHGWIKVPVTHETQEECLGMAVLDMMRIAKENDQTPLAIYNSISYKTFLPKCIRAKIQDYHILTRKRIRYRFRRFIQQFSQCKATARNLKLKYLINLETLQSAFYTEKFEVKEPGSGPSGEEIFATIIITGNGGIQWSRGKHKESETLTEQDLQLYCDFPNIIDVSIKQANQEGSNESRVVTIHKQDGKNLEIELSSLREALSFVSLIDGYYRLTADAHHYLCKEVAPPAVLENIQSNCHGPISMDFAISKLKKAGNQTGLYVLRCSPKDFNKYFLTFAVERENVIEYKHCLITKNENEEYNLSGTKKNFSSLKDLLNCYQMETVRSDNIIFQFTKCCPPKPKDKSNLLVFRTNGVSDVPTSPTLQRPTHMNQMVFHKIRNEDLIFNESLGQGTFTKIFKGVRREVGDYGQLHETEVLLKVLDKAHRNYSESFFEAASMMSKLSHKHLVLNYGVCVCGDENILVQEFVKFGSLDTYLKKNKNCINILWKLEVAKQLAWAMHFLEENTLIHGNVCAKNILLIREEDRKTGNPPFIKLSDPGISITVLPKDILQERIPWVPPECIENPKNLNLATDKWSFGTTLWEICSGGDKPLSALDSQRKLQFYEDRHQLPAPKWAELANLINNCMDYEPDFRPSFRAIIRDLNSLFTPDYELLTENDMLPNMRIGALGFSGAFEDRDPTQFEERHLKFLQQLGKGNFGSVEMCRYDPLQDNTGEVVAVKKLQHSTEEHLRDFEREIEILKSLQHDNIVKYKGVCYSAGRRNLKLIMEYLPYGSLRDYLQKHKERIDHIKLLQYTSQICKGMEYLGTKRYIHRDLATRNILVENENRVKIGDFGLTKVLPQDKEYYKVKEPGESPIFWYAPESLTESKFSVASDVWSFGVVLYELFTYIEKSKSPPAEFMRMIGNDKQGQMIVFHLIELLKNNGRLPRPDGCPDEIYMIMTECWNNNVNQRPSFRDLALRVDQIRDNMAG
T4 sequence (P11309 whole entry): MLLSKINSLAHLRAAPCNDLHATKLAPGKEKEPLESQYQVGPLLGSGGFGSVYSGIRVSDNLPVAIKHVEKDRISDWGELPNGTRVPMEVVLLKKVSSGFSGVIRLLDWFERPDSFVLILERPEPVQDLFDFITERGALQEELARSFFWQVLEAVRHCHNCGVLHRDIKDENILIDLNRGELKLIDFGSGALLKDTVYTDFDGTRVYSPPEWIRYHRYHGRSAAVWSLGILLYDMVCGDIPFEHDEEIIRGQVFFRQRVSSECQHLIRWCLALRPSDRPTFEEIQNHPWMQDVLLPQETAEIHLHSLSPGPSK
T5 sequence (P10721 26-976 D816V): as the sequence (P10721 26-976 V560G) above, with G535V, D791V counted along it

Question: `Cc1cc(Oc2cc(NC(=O)C3CC3)ncn2)ccc1NC(=O)Nc1ccc(Cl)c(C(F)(F)F)c1` [CBT-102] was tested. Which IC50 (CDK2/cyclinE (h)) did it give?
Answer: > 10 µM

Question: What about the IC50 (SAPK2b (h)) of the same compound?
Answer: 0.07 µM

Question: What about the IC50 (SAPK4 (h)) of the same compound?
Answer: 0.228 µM

Question: What about the IC50 (Pim-1 (h)) of the same compound?
Answer: > 10 µM

Question: What about the IC50 (cKit (D816V) (h)) of the same compound?
Answer: > 10 µM

Question: And the IC50 (NEK2 (h))?
Answer: > 10 µM

Question: And the IC50 (FGFR1 (h))?
Answer: 0.41 µM

Question: What about the IC50 (cKit (V560G) (h)) of the same compound?
Answer: 0.038 µM

Question: What about the IC50 (DDR2 (h)) of the same compound?
Answer: 0.263 µM

Question: And the IC50 (MuSK (h))?
Answer: 0.278 µM

Question: What about the IC50 (PKA (h)) of the same compound?
Answer: > 10 µM

Question: And the IC50 (TNIK (h))?
Answer: 0.113 µM

Question: What about the IC50 (ErbB2 (h)) of the same compound?
Answer: > 10 µM

Question: And the IC50 (B-Raf (h))?
Answer: 0.348 µM

Question: And the IC50 (MAP4K5 (h))?
Answer: 0.024 µM

Question: And the IC50 (SLK (h))?
Answer: 0.879 µM

Question: What about the IC50 (EphB3 (h)) of the same compound?
Answer: > 10 µM

Question: What about the IC50 (Met (h)) of the same compound?
Answer: 2.86 µM

Question: And the IC50 (cSRC (h))?
Answer: 2.5 µM

Question: What about the IC50 (Aurora-C (h)) of the same compound?
Answer: > 10 µM

Question: What about the IC50 (FGFR3 (h)) of the same compound?
Answer: > 10 µM

Question: What about the IC50 (Aurora-A (h)) of the same compound?
Answer: 1.77 µM

Question: What about the IC50 (IR (h)) of the same compound?
Answer: > 10 µM

Question: And the IC50 (IRAK4 (h))?
Answer: > 10 µM

Question: And the IC50 (Abl (h))?
Answer: 1.83 µM

Question: And the IC50 (CDK6/cyclinD3 (h))?
Answer: > 10 µM

Question: What about the IC50 (MLK1 (h)) of the same compound?
Answer: 6.06 µM

Question: What about the IC50 (ZAK (h)) of the same compound?
Answer: 0.026 µM

Question: What about the IC50 (IGF-1R (h)) of the same compound?
Answer: > 10 µM

Question: What about the IC50 (CDK4/cyclinD3 (h)) of the same compound?
Answer: > 10 µM

Question: What about the IC50 (JAK2 (h)) of the same compound?
Answer: > 10 µM

Question: What about the IC50 (Syk (h)) of the same compound?
Answer: > 10 µM

Question: What about the IC50 (EphB4 (h)) of the same compound?
Answer: 0.486 µM

Question: What about the IC50 (EphA1 (h)) of the same compound?
Answer: 1.11 µM

Question: And the IC50 (p70S6K (h))?
Answer: > 10 µM
